# According to patent US20200216812A1, “IN VIVO METHOD FOR DIFFERENTIATING HUMAN PLURIPOTENT STEM CELLS INTO ATRIAL CARDIOMYOCYTES” (Ncardia B.V., priority 2016, published 2020):
# Key:
# Format in all cases: cell-based, human
# hiPSC = assay: Differentiation of hiPSC into cardiomyocytes having an atrial phenotype (phenotype analysis, text summary); settings: for differentiation of hiPSC into atrial cardiomyocytes (immunoreactive signal for COUP-TF1 and/or COUP-TF1): 1 microM; for differentiation of hiPSC into cardiomyocytes having an atrial phenotype (immunoreactive signal for COUP-TF1 and/or COUP-TF1): 10 microM
# Protocol: (§1) The purpose of this experiment was to determine the influence of retinoic acid (RA) (i.e. all-trans retinoic acid was used in the experiments below) on differentiation of hiPSC into atrial cardiomyocytes. Specifically, the influence of all-trans retinoic acid concentration (1 microM vs 10 microM) as well as the effect of timing/duration of retinoic acid application (i.e. d2-4 vs d3-d4 vs d2-18) were tested according to the following experimental scheme:
# (§2) Step a): The hiPSC were contacted with 5 microM of CHIR-99021 for a period of 48 hours. At the term of step a), the media was refreshed, i.e. replaced by a media devoid of CHIR-99021 and comprising 5 microM of XAV-939 and 0.25 microM of IWP-L6.
# (§3) Step b): Immediately after having refreshed the medium of step a), i.e. immediately after the 48 hours of step a) (which correspond to 2 days after having initiated step a), the cells were contacted with 5 microM of XAV-939 and 0.25 microM of IWP-L6 as well as with 10 microM of all trans retinoic acid. The cells were cultured in this media for 48 hours. At the term of step b), the media was refreshed with a media but devoid of CHIR-99021, XAV-939, and IWP-L6. The hiPSC-derived cardiomyocytes were further cultured until 14 days after initiating step a), after which they were harvested and submitted to immunohistochemical procedure for assessment of atrial phenotype (see example 3 below).
# as §3, with “step” for “step a) (which correspond to 2 days after having initiated step”, “of IWP-L6. At 24 hours after initiating step b) (which corresponds to 3 days after having initiated step a),” for “of IWP-L6 as well as with”, “of” for “of all trans”, “retinoic acid was added to the media of step b).” for “retinoic acid.”, “for 24” for “for 48”
# (§4) Step b): Immediately after having refreshed the medium of step a), i.e. immediately after the 48 hours of step a), the cells were contacted with 5 microM of XAV-939 and 0.25 microM of IWP-L6. At 24 hours after initiating step b) (which corresponds to 3 days after having initiated step a), 1 microM of retinoic acid was added to the media of step b). The cells were cultured in this media for 24 hours. At the term of step b), the media was refreshed with a media but devoid of CHIR-99021, XAV-939, and IWP-L6. […]
# COUP-TFI = assay: Qualitative immunoreactivity signal for COUP-TFI in hiPSC-derived cardiomyocytes (co-staining with alpha actinin); parameters: key: +++: Strongest immunoreactivity signal (i.e. fluorescence staining); ++: Moderate immunoreactivity signal (i.e. fluorescence staining); +: Lowest immunoreactivity signal (i.e. fluorescence staining); +/−: Marginal immunoreactivity signal (i.e. fluorescence staining) (i.e. very low signal, not consistently observed in all cells).; −: No immunoreactivity signal (i.e. fluorescence staining)
# Protocol: as §1
# (§5) The aqueous media consisted of the following composition: 46.5% IMDM (Gibco 21056), 0.25% Bovostar BSA, 46.5% Ham's F12 with Glutamax, 2 mM Glutamax, 450 nM alphaMTG, 0.05 mg/ml ascorbic acid, 0.5% 5000 U/ml Pen/Strep (Gibco 12070), 0.01% 1000* Trace elements mix B (Cellgro 99-176-CL), 0.1% 1000* Trace elements mix C (Cellgro 99-176-CL). The aqueous media was used in all four treatment groups, except that RA was added at different concentrations depending on the given treatment group, i.e. 10 microM for treatment group 1 and 2 and 1 microM for treatment groups 3 and 4.
# (§6) For all treatment groups, CHIR-99021 was used at a concentration of 5 microM.
# (§7) For all experimental groups, a combination of 5 microM of XAV-939 and 0.25 microM of IWP-L6 was used. Plating of hiPSC hiPSC were seeded in 12-well plates at density of 60.000 cells per well or a split ratio that was empirically determined to give 30-80% confluence after 4 days. Culture media was replaced after 4 days, in each treatment group, with a differentiation media as described in Table 1.
# as §2, §3
# as §4, with “10” for “1”, “b).” for “b). The cells were cultured in this media for 24 hours. At the term of step b), the media was refreshed with a media but devoid of CHIR-99021, XAV-939, and IWP-L6.”
# COUP-TFII = assay: Qualitative immunoreactivity signal for COUP-TFII in hiPSC-derived cardiomyocytes (co-staining with alpha actinin); parameters: key: +++: Strongest immunoreactivity signal (i.e. fluorescence staining); ++: Moderate immunoreactivity signal (i.e. fluorescence staining); +: Lowest immunoreactivity signal (i.e. fluorescence staining); +/−: Marginal immunoreactivity signal (i.e. fluorescence staining) (i.e. very low signal, not consistently observed in all cells).; −: No immunoreactivity signal (i.e. fluorescence staining)
# Protocol: as §1, §5, §6, §7, §2, §3
# as §4, with “10” for “1”, “b).” for “b). The cells were cultured in this media for 24 hours. At the term of step b), the media was refreshed with a media but devoid of CHIR-99021, XAV-939, and IWP-L6.”
# [1] = treatment group 1: 10 microM RA/d 2-4
# [2] = treatment group 2: 10 microM RA/d 3-4
# [3] = treatment group 3: 1 microM RA/d 3-4
# [4] = treatment group 4: 1 microM RA/d 2-14 + 4
compound,measurement,setting,value
"CC1=C(/C=C/C(C)=C/C=C/C(C)=C/C(=O)O)C(C)(C)CCC1 [RA, all-trans retinoic acid]",differentiation of hiPSC into atrial cardiomyocytes (immunoreactive signal for COUP-TF1 and/or COUP-TF1),"hiPSC; added 2 days (48 hours) after initiating step a, duration 12 days (group 4)",low immunoreactive signal
same,differentiation of hiPSC into atrial cardiomyocytes (immunoreactive signal for COUP-TF1 and/or COUP-TF1),"hiPSC; added 3 days (72 hours) after initiating step a, duration 24 hours (group 3)",marginal or no immunoreactive signal
same,differentiation of hiPSC into cardiomyocytes having an atrial phenotype (immunoreactive signal for COUP-TF1 and/or COUP-TF1),"hiPSC; added 2 days (48 hours) after initiating step a, duration 48 hours (group 1)",strongest immunoreactive signal
same,differentiation of hiPSC into cardiomyocytes having an atrial phenotype (immunoreactive signal for COUP-TF1 and/or COUP-TF1),"hiPSC; added 3 days (72 hours) after initiating step a, duration 24 hours (group 2)",moderate immunoreactive signal
same,intensity of the immunoreactivity signal for COUP-TFI,COUP-TFI; [1],++
same,intensity of the immunoreactivity signal for COUP-TFI,COUP-TFI; [2],+
same,intensity of the immunoreactivity signal for COUP-TFI,COUP-TFI; [3],−
same,intensity of the immunoreactivity signal for COUP-TFI,COUP-TFI; [4],+/−
same,intensity of the immunoreactivity signal for COUP-TFII,COUP-TFII; [1],+++
same,intensity of the immunoreactivity signal for COUP-TFII,COUP-TFII; [2],++
same,intensity of the immunoreactivity signal for COUP-TFII,COUP-TFII; [3],−
same,intensity of the immunoreactivity signal for COUP-TFII,COUP-TFII; [4],+
